Test results published in patent US20260262643A1, “HERBICIDAL BENZOXAZINES” (FMC CORPORATION, priority 2022, published 2026).

Experiments:
[1] = tested on: barnyardgrass; assay: Test C preemergence; type: in vivo, Echinochloa crusgalli; conditions: 0 to 100 scale (0 no effect, 100 complete control); for Plant response rating, Barnyardgrass: Preemergence, 500 g ai/ha, visual rating after 10 days; for Barnyardgrass plant response rating: Test C, preemergence, 125 g ai/ha
Summary of the method: (§1)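 Pre: seeds in loam/sand, directed soil spray. Post: 1–2 leaf plants, 2–10 cm. Cmpd in non-phytotoxic solvent + surfactant. Greenhouse 10 d; visual rating vs untreated, 0 = none, 100 = complete control.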

[2] = tested on: blackgrass; assay: Test C preemergence; type: in vivo, Alopecurus myosuroides; conditions: 0 to 100 scale (0 no effect, 100 complete control); for Plant response rating, Blackgrass: Preemergence, 500 g ai/ha, visual rating after 10 days; for Blackgrass plant response rating: Test C, preemergence, 125 g ai/ha
Summary of the method: as §1

[3] = tested on: corn; assay: Test C preemergence; type: in vivo, Zea mays; conditions: 0 to 100 scale (0 no effect, 100 complete control); for Plant response rating, Corn: Preemergence, 500 g ai/ha, visual rating after 10 days; for Corn plant response rating: Test C, preemergence, 125 g ai/ha
Summary of the method: as §1

[4] = tested on: green foxtail; assay: Test C preemergence; type: in vivo, Setaria viridis; conditions: 0 to 100 scale (0 no effect, 100 complete control); for Plant response rating, Foxtail, Green: Preemergence, 500 g ai/ha, visual rating after 10 days; for Foxtail, Green plant response rating: Test C, preemergence, 125 g ai/ha
Summary of the method: as §1

[5] = tested on: kochia; assay: Test C preemergence; type: in vivo, Bassia scoparia; conditions: 0 to 100 scale (0 no effect, 100 complete control); for Plant response rating, Kochia: Preemergence, 500 g ai/ha, visual rating after 10 days; for Kochia plant response rating: Test C, preemergence, 125 g ai/ha
Summary of the method: as §1

[6] = tested on: oat, wild; assay: Test C preemergence; type: in vivo, Avena fatua; conditions: 0 to 100 scale (0 no effect, 100 complete control); for Plant response rating, Oat, Wild: Preemergence, 500 g ai/ha, visual rating after 10 days; for Oat, Wild plant response rating: Test C, preemergence, 125 g ai/ha
Summary of the method: as §1

[7] = tested on: pigweed, palmer; assay: Test C preemergence; type: in vivo, Amaranthus palmeri; conditions: 0 to 100 scale (0 no effect, 100 complete control); for Plant response rating, Pigweed, Palmer: Preemergence, 500 g ai/ha, visual rating after 10 days; for Pigweed, Palmer plant response rating: Test C, preemergence, 125 g ai/ha
Summary of the method: as §1

[8] = tested on: ragweed; assay: Test C preemergence; type: in vivo, Ambrosia artemisiifolia; conditions: 0 to 100 scale (0 no effect, 100 complete control); for Plant response rating, Ragweed: Preemergence, 500 g ai/ha, visual rating after 10 days; for Ragweed plant response rating: Test C, preemergence, 125 g ai/ha
Summary of the method: as §1

[9] = tested on: ryegrass, Italian; assay: Test C preemergence; type: in vivo, Lolium multiflorum; conditions: 0 to 100 scale (0 no effect, 100 complete control); for Plant response rating, Ryegrass, Italian: Preemergence, 500 g ai/ha, visual rating after 10 days; for Ryegrass, Italian plant response rating: Test C, preemergence, 125 g ai/ha
Summary of the method: as §1

[10] = tested on: soybean; assay: Test C preemergence; type: in vivo, Glycine max; conditions: 0 to 100 scale (0 no effect, 100 complete control); for Plant response rating, Soybean: Preemergence, 500 g ai/ha, visual rating after 10 days; for Soybean plant response rating: Test C, preemergence, 125 g ai/ha
Summary of the method: as §1

[11] = tested on: wheat; assay: Test C preemergence; type: in vivo, Triticum aestivum; conditions: 0 to 100 scale (0 no effect, 100 complete control); for Plant response rating, Wheat: Preemergence, 500 g ai/ha, visual rating after 10 days; for Wheat plant response rating: Test C, preemergence, 125 g ai/ha
Summary of the method: as §1

[12] = tested on: barnyardgrass; assay: Test C postemergence; type: in vivo, Echinochloa crusgalli; conditions: 10 days
Summary of the method: as §1

[13] = tested on: blackgrass; assay: Test C postemergence; type: in vivo, Alopecurus myosuroides; conditions: 10 days
Summary of the method: as §1

[14] = tested on: corn; assay: Test C postemergence; type: in vivo, Zea mays; conditions: 10 days
Summary of the method: as §1

[15] = tested on: kochia; assay: Test C postemergence; type: in vivo, Bassia scoparia; conditions: 10 days
Summary of the method: as §1

[16] = tested on: oat, wild; assay: Test C postemergence; type: in vivo, Avena fatua; conditions: 10 days
Summary of the method: as §1

[17] = tested on: pigweed, palmer; assay: Test C postemergence; type: in vivo, Amaranthus palmeri; conditions: 10 days
Summary of the method: as §1

[18] = tested on: ragweed; assay: Test C postemergence; type: in vivo, Ambrosia artemisiifolia; conditions: 10 days
Summary of the method: as §1

[19] = tested on: ryegrass, Italian; assay: Test C postemergence; type: in vivo, Lolium multiflorum; conditions: 10 days
Summary of the method: as §1

[20] = tested on: soybean; assay: Test C postemergence; type: in vivo, Glycine max; conditions: 10 days
Summary of the method: as §1

[21] = tested on: wheat; assay: Test C postemergence; type: in vivo, Triticum aestivum; conditions: 10 days
Summary of the method: as §1

[22] = tested on: galium; assay: Test C postemergence; type: in vivo, Galium aparine; conditions: 10 days
Summary of the method: as §1

[23] = tested on: horseweed; assay: Test C postemergence; type: in vivo, Erigeron canadensis; conditions: 10 days
Summary of the method: as §1

[24] = tested on: barnyardgrass; assay: Test D flooded paddy test; type: in vivo, Echinochloa crus-galli; conditions: 250 g ai/ha, applied to paddy water, visual rating after 13 to 14 days, scale 0 to 100 (0 no effect, 100 complete control)
Summary of the method: (§2)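 Rating scale 0–100 (0 no effect, 100 complete control), visual, versus controls. Readout at 13–14 days after in-water application to 2-leaf plants in pots flooded 3 cm deep.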

[25] = tested on: ducksalad; assay: Test D flooded paddy test; type: in vivo, Heteranthera limosa; conditions: 250 g ai/ha, applied to paddy water, visual rating after 13 to 14 days, scale 0 to 100 (0 no effect, 100 complete control)
Summary of the method: as §2

[26] = tested on: rice; assay: Test D flooded paddy test; type: in vivo, Oryza sativa; conditions: 250 g ai/ha, applied to paddy water, visual rating after 13 to 14 days, scale 0 to 100 (0 no effect, 100 complete control)
Summary of the method: as §2

[27] = tested on: sedge, umbrella; assay: Test D flooded paddy test; type: in vivo, Cyperus difformis; conditions: 250 g ai/ha, applied to paddy water, visual rating after 13 to 14 days, scale 0 to 100 (0 no effect, 100 complete control)
Summary of the method: as §2

[28] = 125 g ai/ha, postemergence, 0 to 100 scale, 0 no effect, 100 complete control
[29] = Postemergence, 500 g ai/ha, visual 0 to 100 scale (0 no effect, 100 complete control)

`COC[C@H]1CN(C(=O)c2cc(-n3cnc(C4CCC4)n3)ccc2OC)c2cccc(Cl)c2O1` [Compound 236] was tested, and the “Plant response rating, Barnyardgrass” value [1] was 80, the “Barnyardgrass plant response rating” value [1] was 20 and the “Plant response rating, Blackgrass” value [2] was 10. For the same compound, the “Blackgrass plant response rating” value [2] was 0, the “Plant response rating, Corn” value [3] was 0 and the “Corn plant response rating” value [3] was 0. The “Plant response rating, Foxtail, Green” value [4] was 100, the “Foxtail, Green plant response rating” value [4] was 90 and the “Plant response rating, Kochia” value [5] was 90. The “Kochia plant response rating” value [5] was 40, the “Plant response rating, Oat, Wild” value [6] was 30 and the “Oat, Wild plant response rating” value [6] was 10. The “Plant response rating, Pigweed, Palmer” value [7] was 100, the “Pigweed, Palmer plant response rating” value [7] was 80 and the “Plant response rating, Ragweed” value [8] was 80. The “Ragweed plant response rating” value [8] was 20, the “Plant response rating, Ryegrass, Italian” value [9] was 50 and the “Ryegrass, Italian plant response rating” value [9] was 50. The “Plant response rating, Soybean” value [10] was 70, the “Soybean plant response rating” value [10] was 40 and the “Plant response rating, Wheat” value [11] was 10. For the same compound, the “Wheat plant response rating” value [11] was 0, the “Plant response rating, Barnyardgrass” value [12, 28] was 40 and the “Plant response rating, Barnyardgrass” value [12, 29] was 90. For the same compound, the “Plant response rating, Blackgrass” value [13, 28] was 20, the “Plant response rating, Blackgrass” value [13, 29] was 90 and the “Plant response rating, Corn” value [14, 28] was 30. The “Plant response rating, Corn” value [14, 29] was 80, the “Plant response rating, Kochia” value [15, 28] was 90 and the “Plant response rating, Kochia” value [15, 29] was 90. For the same compound, the “Plant response rating, Oat, Wild” value [16, 28] was 10, the “Plant response rating, Oat, Wild” value [16, 29] was 40 and the “Plant response rating, Pigweed, Palmer” value [17, 28] was 90. For the same compound, the “Plant response rating, Pigweed, Palmer” value [17, 29] was 90, the “Plant response rating, Ragweed” value [18, 28] was 80 and the “Plant response rating, Ragweed” value [18, 29] was 90. For the same compound, the “Plant response rating, Ryegrass, Italian” value [19, 28] was 60, the “Plant response rating, Ryegrass, Italian” value [19, 29] was 90 and the “Plant response rating, Soybean” value [20, 28] was 100. For the same compound, the “Plant response rating, Soybean” value [20, 29] was 100, the “Plant response rating, Wheat” value [21, 28] was 20 and the “Plant response rating, Wheat” value [21, 29] was 30. For the same compound, the “Plant response rating, Galium” value [22, 28] was 100, the “Plant response rating, Galium” value [22, 29] was 100 and the “Plant response rating, Horseweed” value [23, 28] was 70. For the same compound, the “Plant response rating, Horseweed” value [23, 29] was 70, the “Plant response rating, Barnyardgrass (Flood)” value [24] was 0 and the “Plant response rating, Ducksalad (Flood)” value [25] was 75. For the same compound, the “Plant response rating, Rice (Flood)” value [26] was 0 and the “Plant response rating, Sedge, Umbrella (Flood)” value [27] was 95.
With `COC[C@H]1CN(C(=O)c2cc(-n3cncn3)ccc2OC)c2cccc(Cl)c2O1` [Compound 234] the “Plant response rating, Barnyardgrass” value [1] was 100, the “Barnyardgrass plant response rating” value [1] was 90 and the “Plant response rating, Blackgrass” value [2] was 80. The “Blackgrass plant response rating” value [2] was 70, the “Plant response rating, Corn” value [3] was 10 and the “Corn plant response rating” value [3] was 10. For the same compound, the “Plant response rating, Foxtail, Green” value [4] was 100, the “Foxtail, Green plant response rating” value [4] was 100 and the “Plant response rating, Kochia” value [5] was 60. The “Kochia plant response rating” value [5] was 30, the “Plant response rating, Oat, Wild” value [6] was 70 and the “Oat, Wild plant response rating” value [6] was 50. The “Plant response rating, Pigweed, Palmer” value [7] was 90, the “Pigweed, Palmer plant response rating” value [7] was 60 and the “Plant response rating, Ragweed” value [8] was 50. For the same compound, the “Ragweed plant response rating” value [8] was 50, the “Plant response rating, Ryegrass, Italian” value [9] was 90 and the “Ryegrass, Italian plant response rating” value [9] was 80. The “Plant response rating, Soybean” value [10] was 100, the “Soybean plant response rating” value [10] was 90 and the “Plant response rating, Wheat” value [11] was 80. The “Wheat plant response rating” value [11] was 40, the “Plant response rating, Barnyardgrass” value [12, 28] was 60 and the “Plant response rating, Barnyardgrass” value [12, 29] was 100. For the same compound, the “Plant response rating, Blackgrass” value [13, 28] was 80, the “Plant response rating, Blackgrass” value [13, 29] was 90 and the “Plant response rating, Corn” value [14, 28] was 70. The “Plant response rating, Corn” value [14, 29] was 90, the “Plant response rating, Kochia” value [15, 28] was 60 and the “Plant response rating, Kochia” value [15, 29] was 80. The “Plant response rating, Oat, Wild” value [16, 28] was 50, the “Plant response rating, Oat, Wild” value [16, 29] was 80 and the “Plant response rating, Pigweed, Palmer” value [17, 28] was 30. The “Plant response rating, Pigweed, Palmer” value [17, 29] was 70, the “Plant response rating, Ragweed” value [18, 28] was 50 and the “Plant response rating, Ragweed” value [18, 29] was 70. For the same compound, the “Plant response rating, Ryegrass, Italian” value [19, 28] was 90, the “Plant response rating, Ryegrass, Italian” value [19, 29] was 90 and the “Plant response rating, Soybean” value [20, 28] was 100. The “Plant response rating, Soybean” value [20, 29] was 100, the “Plant response rating, Wheat” value [21, 28] was 50 and the “Plant response rating, Wheat” value [21, 29] was 80. For the same compound, the “Plant response rating, Galium” value [22, 28] was 100, the “Plant response rating, Galium” value [22, 29] was 100 and the “Plant response rating, Horseweed” value [23, 28] was 20. The “Plant response rating, Horseweed” value [23, 29] was 20, the “Plant response rating, Barnyardgrass (Flood)” value [24] was 75 and the “Plant response rating, Ducksalad (Flood)” value [25] was 100. The “Plant response rating, Rice (Flood)” value [26] was 0 and the “Plant response rating, Sedge, Umbrella (Flood)” value [27] was 100.
